Data: the supplement of paper PMC10307832

What was measured:
Test in all cases: relative viability (nuclei count vs DMSO), 5 days (fraction); higher = more cells survive
Hydroxychloroquine = compound: CCN(CCO)CCCC(C)Nc1ccnc2cc(Cl)ccc12 [Hydroxychloroquine]
Outline: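 Viability here means nuclei in treated wells divided by nuclei in vehicle wells, reported as the median across plates. Only plates with control CV below 25% and at least one doubling passed. Lung cancer cell lines in 1536-well plates were exposed to five √10-spaced library-drug doses for 5 days and counted from 4× Hoechst images in MetaXpress.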

[1] = compound: CCN(CCO)CCCC(C)Nc1ccnc2cc(Cl)ccc12 [Hydroxychloroquine] + CC(=O)c1c(C)c2cnc(Nc3ccc(N4CCNCC4)cn3)nc2n(C2CCCC2)c1=O [Palbociclib] (partner 0.5 µM)
Outline: (§1)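 One day after seeding in 1536-well plates, lung cancer cell lines were dosed by pin tool. Dosing was either single-drug or a fixed anchor-drug dose plus five library-drug doses (not always all listed) in √10 steps. After 5 days, nuclei were stained in one fix-and-stain step and counted on 4× images, and relative viability is the nuclei count of treated wells over that of vehicle wells, given as the median of duplicate plates.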

[2] = compound: CCN(CCO)CCCC(C)Nc1ccnc2cc(Cl)ccc12 [Hydroxychloroquine] + COc1cc2c(Oc3ccc(NC(=O)C4(C(=O)Nc5ccc(F)cc5)CC4)cc3F)ccnc2cc1OCCCN1CCOCC1 [Foretinib] (partner 0.25 µM)
Outline: as §1

[3] = compound: CCN(CCO)CCCC(C)Nc1ccnc2cc(Cl)ccc12 [Hydroxychloroquine] + COc1cccc2cc(-c3nc([C@H]4CC[C@H](C(=O)O)CC4)n4ncnc(N)c34)[nH]c12 [OSI-027] (partner 0.5 µM)
Outline: as §1

Row | Cell Line | relative viability (Hydroxychloroquine; 0.5 µM) | relative viability (Hydroxychloroquine; 1.581 µM) | relative viability (Hydroxychloroquine; 5 µM) | relative viability (Hydroxychloroquine; 15.81 µM) | relative viability (Hydroxychloroquine; 50 µM) | relative viability ([1]; first compound 0.5 µM) | relative viability ([1]; first compound 1.581 µM) | relative viability ([1]; first compound 5 µM) | relative viability ([1]; first compound 15.81 µM) | relative viability ([1]; first compound 50 µM) | relative viability ([2]; first compound 0.5 µM) | relative viability ([2]; first compound 1.581 µM) | relative viability ([2]; first compound 5 µM) | relative viability ([2]; first compound 15.81 µM) | relative viability ([2]; first compound 50 µM) | relative viability ([3]; first compound 0.5 µM) | relative viability ([3]; first compound 1.581 µM) | relative viability ([3]; first compound 5 µM) | relative viability ([3]; first compound 15.81 µM) | relative viability ([3]; first compound 50 µM)
1 | NCI-H727 | 1.04 | 0.815 | 1.04 | 0.898 | 0.911 | 0.643 | 0.552 | 0.561 | 0.661 | 0.688 | 0.752 | 0.767 | 0.735 | 0.794 | 0.922 | 0.672 | 0.639 | 0.796 | 0.555 | 0.632
2 | NCI-H838 | 1.02 | 0.958 | 0.984 | 0.975 | 1.12 | 0.237 | 0.197 | 0.242 | 0.194 | 0.22 | 1.07 | 0.978 | 1.08 | 0.98 | 1.13 | 0.421 | 0.392 | 0.37 | 0.406 | 0.401
3 | NCI-H1355 | 1.04 | 0.956 | 1 | 0.983 | 1.05 | 0.41 | 0.365 | 0.392 | 0.387 | 0.379 | 0.941 | 0.965 | 0.956 | 1.02 | 0.979 | 0.509 | 0.301 | 0.371 | 0.332 | 0.44
4 | NCI-H1395 | 0.887 | 0.847 | 0.81 | 0.83 | 0.854 | 0.652 | 0.556 | 0.626 | 0.608 | 0.563 | 1.06 | 0.989 | 0.872 | 0.963 | 1.02 | 0.67 | 0.566 | 0.639 | 0.638 | 0.549
